Source: ChEMBL document CHEMBL1614629, “Extrapolation of human pharmacokinetic parameters from rat, dog, and monkey data: Molecular properties associated with extrapolative success or failure” (J Pharm Sci, 2005)

Tests used:
[1] = Clearance in human after iv administration; assay type: ADME, organism-based; settings: in vivo
[2] = Volume of distribution at steady state in human after iv administration; assay type: ADME, organism-based; settings: in vivo, read-out: Vdss
[3] = Clearance in monkey after iv administration; assay type: ADME, organism-based; settings: macaca, in vivo
[4] = Volume of distribution at steady state in monkey after iv administration; assay type: ADME, organism-based; settings: macaca, in vivo, read-out: Vdss
[5] = Clearance in dog after iv administration; assay type: ADME, organism-based, Canis lupus familiaris; settings: in vivo
[6] = Volume of distribution at steady state in dog after iv administration; assay type: ADME, organism-based, Canis lupus familiaris; settings: in vivo, read-out: Vdss
[7] = Volume of distribution at steady state in rat after iv administration; assay type: ADME, organism-based; settings: in vivo
[8] = Clearance in rat after iv administration; assay type: ADME, organism-based; settings: in vivo

Structure (SMILES)	clearance [1]	Vd [2]	clearance [3]	Vd [4]	clearance [5]	Vd [6]	Vdss [7]	clearance [8]
O=P1(N(CCCl)CCCl)NCCCO1 (centres undefined) [CYCLOPHOSPHAMIDE ANHYDROUS]	2.6 mL/min/kg	0.7 L/kg	20 mL/min/kg	1.3 L/kg	20 mL/min/kg	0.7 L/kg	0.8 L/kg	12 mL/min/kg
CO/N=C(\C(=O)N[C@@H]1C(=O)N2C(C(=O)[O-])=C(C[N+]34CCC(C(N)=O)(CC3)CC4)CS[C@H]12)c1nsc(N)n1 [CEFCLIDIN]	1.5 mL/min/kg	0.17 L/kg	3.4 mL/min/kg	0.28 L/kg	3.6 mL/min/kg	0.23 L/kg	0.22 L/kg	8.8 mL/min/kg
CC1CCCC(C)N1CCCC(O)(c1ccccc1)c1ccccn1 (centres undefined) [PIRMENOL]	2.5 mL/min/kg	1.3 L/kg	5 mL/min/kg	1.4 L/kg	6 mL/min/kg	3.3 L/kg	12 L/kg	23 mL/min/kg
CC(=O)CC(c1ccccc1)c1c(O)c2ccccc2oc1=O (centres undefined) [WARFARIN]	0.04 mL/min/kg	0.11 L/kg	0.13 mL/min/kg	0.11 L/kg	0.3 mL/min/kg	0.28 L/kg	0.22 L/kg	0.36 mL/min/kg
C#C[C@]1(O)CC[C@H]2[C@@H]3CCc4cc(O)ccc4[C@H]3[C@@H](OC)C[C@@]21C [MOXESTROL]	0.34 mL/min/kg	0.24 L/kg	3.2 mL/min/kg	1.8 L/kg	5.2 mL/min/kg	0.63 L/kg	1.4 L/kg	52 mL/min/kg
CN1CCN(c2c(F)cc3c(=O)c(C(=O)O)cn(CCF)c3c2F)CC1 [FLEROXACIN]	2.4 mL/min/kg	1.5 L/kg	4 mL/min/kg	1.2 L/kg	1.6 mL/min/kg	1.3 L/kg	1.3 L/kg	5.7 mL/min/kg
C[C@@H]1[C@H](O)[C@@H](C)/C=C/C=C/C=C/C=C/C=C/C=C/C=C/[C@H](O[C@@H]2O[C@H](C)[C@@H](O)[C@H](N)[C@@H]2O)C[C@@H]2O[C@](O)(C[C@@H](O)C[C@@H](O)[C@H](O)CC[C@@H](O)C[C@@H](O)CC(=O)O[C@H]1C)C[C@H](O)[C@H]2C(=O)O [AMPHOTERICIN B]	0.4 mL/min/kg	4 L/kg	0.1 mL/min/kg	0.2 L/kg	0.1 mL/min/kg	0.5 L/kg	2.3 L/kg	2 mL/min/kg
O=P(O)(O)C(Sc1ccc(Cl)cc1)P(=O)(O)O [TILUDRONIC ACID]	0.3 mL/min/kg	1 L/kg	0.83 mL/min/kg	7 L/kg	0.5 mL/min/kg	3 L/kg	15 L/kg	3.3 mL/min/kg
CC(=N)N1CC[C@H](SC2=C(C(=O)O)N3C(=O)[C@H]([C@@H](C)O)[C@H]3C2)C1	3.1 mL/min/kg	0.18 L/kg	6.5 mL/min/kg	0.3 L/kg	4.9 mL/min/kg	0.22 L/kg	0.19 L/kg	28 mL/min/kg
CO/N=C(\C(=O)N[C@@H]1C(=O)N2C(C(=O)O)=C(CSc3nc(=O)c(=O)[nH]n3C)CS[C@H]12)c1csc(N)n1 [CEFTRIAXONE]	0.24 mL/min/kg	0.16 L/kg	0.45 mL/min/kg	0.11 L/kg	4 mL/min/kg	0.24 L/kg	0.18 L/kg	4 mL/min/kg
Cc1cc(=O)n(-c2ccccc2)n1C [ANTIPYRINE]	0.66 mL/min/kg	0.87 L/kg	4.4 mL/min/kg	0.74 L/kg	5.5 mL/min/kg	0.62 L/kg	0.97 L/kg	10 mL/min/kg
Cc1nc(=O)c(C#N)c(NCc2cccnc2)[nH]1 [PELRINONE]	4 mL/min/kg	0.35 L/kg	13 mL/min/kg	0.85 L/kg	11 mL/min/kg	1.2 L/kg	3.3 L/kg	28 mL/min/kg
CO[C@@]1(NC(=O)C(C(=O)[O-])c2ccc(O)cc2)C(=O)N2C(C(=O)[O-])=C(CSc3nnnn3C)CO[C@@H]21.[Na+].[Na+] (some centres undefined) [MOXALACTAM DISODIUM]	1.2 mL/min/kg	0.27 L/kg	2 mL/min/kg	0.16 L/kg	2.2 mL/min/kg	0.2 L/kg	0.28 L/kg	9.4 mL/min/kg
CN(C)CCCC1(c2ccc(F)cc2)OCc2cc(C#N)ccc21 (centres undefined) [CITALOPRAM]	5 mL/min/kg	14 L/kg	39 mL/min/kg	10 L/kg	14 mL/min/kg	10 L/kg	21 L/kg	82 mL/min/kg
CC[C@]1(O)C[C@H]2CN(CCc3c([nH]c4ccccc34)[C@@](C(=O)OC)(c3cc4c(cc3OC)N(C=O)[C@H]3[C@@](O)(C(=O)OC)[C@H](OC(C)=O)[C@]5(CC)C=CCN6CC[C@]43[C@@H]65)C2)C1 [VINCRISTINE]	1.8 mL/min/kg	8 L/kg	4.8 mL/min/kg	1.3 L/kg	9.8 mL/min/kg	3.1 L/kg	0.41 L/kg	2 mL/min/kg
O=C1CN=C(c2ccccc2Cl)c2cc([N+](=O)[O-])ccc2N1 [CLONAZEPAM]	1.6 mL/min/kg	5.5 L/kg	14 mL/min/kg	6.8 L/kg	11 mL/min/kg	1.6 L/kg	3 L/kg	21 mL/min/kg
Cc1cccc(C)c1NC(=O)NCCCNC(C)C	7.2 mL/min/kg	1.4 L/kg	32 mL/min/kg	3.8 L/kg	13 mL/min/kg	1.2 L/kg	3.2 L/kg	82 mL/min/kg
CO/N=C(\C(=O)N[C@@H]1C(=O)N2C(C(=O)O)=CCS[C@H]12)c1csc(N)n1 [CEFTIZOXIME]	1.8 mL/min/kg	0.23 L/kg	5.9 mL/min/kg	0.12 L/kg	3.3 mL/min/kg	0.1 L/kg	0.18 L/kg	19 mL/min/kg
N[C@H](C(=O)O)[C@@H]1CC(Cl)=NO1 [ACIVICIN]	0.78 mL/min/kg	0.58 L/kg	3.3 mL/min/kg	0.56 L/kg	1.3 mL/min/kg	0.5 L/kg	0.65 L/kg	5.2 mL/min/kg
NC1(C(=O)O)CC1 [1-Aminocyclopropane carboxylic acid]	1.5 mL/min/kg	0.73 L/kg	3.1 mL/min/kg	0.72 L/kg	0.4 mL/min/kg	0.7 L/kg	0.64 L/kg	3.2 mL/min/kg
CC[C@]1(O)C[C@@H]2CN(CCc3c([nH]c4ccccc34)[C@@](C(=O)OC)(c3cc4c(cc3OC)N(C)[C@H]3[C@@](O)(C(=O)OC)[C@H](OC(C)=O)[C@]5(CC)C=CCN6CC[C@]43[C@@H]65)C2)C1 [VINBLASTINE]	12 mL/min/kg	24 L/kg	7 mL/min/kg	1.5 L/kg	22 mL/min/kg	2.3 L/kg	12 L/kg	25 mL/min/kg
CC#CCC(C)[C@H](O)/C=C/[C@@H]1[C@H]2C/C(=C/CCCC(=O)O)C[C@H]2C[C@H]1O (some centres undefined) [ILOPROST]	17 mL/min/kg	0.4 L/kg	58 mL/min/kg	0.9 L/kg	67 mL/min/kg	0.9 L/kg	0.8 L/kg	32 mL/min/kg
N[C@@H](Cc1ccc(O)c(O)c1)C(=O)O [LEVODOPA]	23 mL/min/kg	1.7 L/kg	17 mL/min/kg	0.47 L/kg	19 mL/min/kg	0.4 L/kg	9.8 L/kg	109 mL/min/kg
